{
  "source": "patent US20240133884A1",
  "about": "“COMPOSITIONS AND METHODS FOR DETECTING TRYPANOSOMA CRUZI INFECTION” (University of Georgia Research Foundation, Inc., priority 2022, published 2024)",
  "key": {"[1]": {"tested_on": "T. cruzi extracellular amastigotes", "assay": "Extracellular amastigote assay (ATPlite ATP production, 48 hours)", "assay_type": "cell-based, Trypanosoma cruzi", "conditions": "in words", "experimental": "(§1) The in vitro anti-T. cruzi amastiogote activity assay was performed and optimized based on the protocol described previously (Canavaci, et al., PLoS neglected tropical diseases 4, e740 (2010)). The change in tdTomato fluorescence intensity was determined as a measurement of growth over 72 hours of culture. For assaying drug effects on extracellular amastigotes, trypomastigotes were collected from infected Vero cell cultures and converted in acidic media as previously described (Tomlinson, et al., Parasitology 110 (Pt 5), 547-554 (1995)). Amastigotes (50,000/well) were incubated with 2-fold serial dilutions of compounds for 48 hours. The ATP production was used as an indication of growth in this case, and was measured by ATPlite Luminescence ATP Detection Assay System (PerkinElmer). Both fluorescence and luminescence were read using a BioTek Synergy Hybrid Multi-Mode reader equipped with the software Gene5 v 2.0 (BioTek). The dose-response curve was generated by […] analysis with GraphPad Prism v9.4.0 (GraphPad Software). IC50 was determined as the drug concentration that was required to inhibit 50% of growth compared to that of parasites with no drug exposure."}, "T. cruzi isolates": {"tested_on": "T. cruzi isolates", "assay": "In vitro potency of AN14353 for a range of T. cruzi isolates of different genetic lineages (DTUs)", "assay_type": "cell-based, Trypanosoma cruzi", "experimental": "as §1, with “exposure. […]” for “exposure.”"}, "T. cruzi": {"tested_on": "T. cruzi", "experimental": "A total of 22 rhesus macaques that had been confirmed to be serologically- and PCR-positive for T. cruzi were utilized in these studies. Using 19 animals in the treatment group provided 85% power of detecting 100% efficacy. The 19 animals were treated with a 30 mg/kg dose of AN15368 delivered in food treats once a day for 60 days. The remaining three animals on the study were maintained as untreated control animals and received food treats but were not dosed with AN15368.\nThe selected dose of 30 mg/kg in NHP was determined based upon the following rationale. […] Under light-anesthesia/sedation, peripheral blood samples were collected from each animal prior to treatment and at 7 time points following. Blood analysis (CBC and serum chemistry assays) and physical exams to evaluate the health of the study animals were performed on each animal prior to the beginning of the study and also at three time points during the treatment protocol.\nBlood samples from each macaque were collected at various time points and processed for quantification of T. cruzi DNA by real-time qPCR. Between 8-ml of whole blood collected in EDTA anticoagulant tubes was subjected to DNA extraction using the Omega E.Z.N.A. Blood DNA Maxi Kit (Omega Bio-Tek), following the manufacturer's instructions for up to 10 ml whole blood and using a total of 650 μl of elution buffer. Each round of extractions included a negative (no-template) control comprised of 10 ml PBS. The concentration of DNA in the eluted solution was quantified after each extraction using an Epoch microplate spectrophotometer (BioTek).\nDNA from each sample was then subjected to a series of two qPCR assays for detection of T. cruzi satellite DNA. […] Positive (DNA extracted from T. cruzi Sylvio X10 clone 4, American Type Culture Collection, ATCC #50800, known concentration 1.7×10^−3 parasite equivalents) and negative (water) controls were included in each PCR plate for both assays. C1000 Touch Bio-Rad CFX96 real-time PCR detection system was used for both assays under the following cycling conditions: (i) initial denaturation, 95°, 3 min; (ii) denaturation, 95° C., 15 s; (iii) annealing, 58° C., 1 min; (iv)×50 cycles. FAM and VIC channels were selected for each read.\nFrozen tissues were screened for T. cruzi DNA using 8 mm biopsies (Sklar instruments #96-1130), collecting 3 to 10 individual ˜100 μl tissue punches for each tissue type and one of more pooled sample consisting of five punches from different areas of the tissue, totaling ˜500 μl per pool. The tissues sampled included liver, heart, fat, esophagus, quadricep, bicep, large intestine, and brain, as well as tongue and spleen in a few instances. Two individual and one pooled sample of tissues from an uninfected macaque was collected for each sampling batch. DNA from macaque tissue was extracted and analyzed as previously described (Bustamante, et al., Sci Transl Med 12 (2020)) with the exceptions that the purification was scaled up to accommodate the larger amount of tissue in the pooled samples and the range for the standards was 2.6×10^2-2.6×10^−3 parasite equivalents using the kDNA minicircle S35 and S36 primers."}, "[2]": {"conditions": "macaques, 30 mg/kg once a day for 60 days, post-treatment time points, 30 mg/kg"}},
  "note": "Entries after “also recorded” stand apart in the source; their conditions may differ.",
  "data": [
    {"smiles": "Cc1c(C(=O)N[C@H](C(=O)OCc2ccc(F)c(F)c2)C(C)C)ccc2c1B(O)OC2", "note": "[AN14353]", "values": [
      {"measurement": "sensitivity of extracellular amastigotes", "setting": "[1]", "value": "high sensitivity"},
      {"measurement": "in vitro potency for a range of T. cruzi isolates", "setting": "T. cruzi isolates; in words", "value": "high in vitro potency"},
      {"measurement": "IC50", "setting": "T. cruzi isolates; strain 20290, DTU TcI", "value": 3, "unit": "nM"},
      {"measurement": "IC90", "setting": "T. cruzi isolates; strain 20290, DTU TcI", "value": 5, "unit": "nM"},
      {"measurement": "IC50", "setting": "T. cruzi isolates; strain 20392, DTU TcIV", "value": 5, "unit": "nM"},
      {"measurement": "IC90", "setting": "T. cruzi isolates; strain 20392, DTU TcIV", "value": 10, "unit": "nM"},
      {"measurement": "IC50", "setting": "T. cruzi isolates; strain ARC0704, DTU TcI", "value": 3, "unit": "nM"},
      {"measurement": "IC90", "setting": "T. cruzi isolates; strain ARC0704, DTU TcI", "value": 7, "unit": "nM"},
      {"measurement": "IC50", "setting": "T. cruzi isolates; strain CL, DTU TcVI", "value": 6, "unit": "nM"},
      {"measurement": "IC90", "setting": "T. cruzi isolates; strain CL, DTU TcVI", "value": 18, "unit": "nM"},
      {"measurement": "IC50", "setting": "T. cruzi isolates; strain Colombiana, DTU TcI", "value": 7, "unit": "nM"},
      {"measurement": "IC90", "setting": "T. cruzi isolates; strain Colombiana, DTU TcI", "value": 10, "unit": "nM"},
      {"measurement": "IC50", "setting": "T. cruzi isolates; strain M5631, DTU TcIII", "value": 1, "unit": "nM"},
      {"measurement": "IC90", "setting": "T. cruzi isolates; strain M5631, DTU TcIII", "value": 3, "unit": "nM"},
      {"measurement": "IC50", "setting": "T. cruzi isolates; strain Montalvania, DTU TcI", "value": 1, "unit": "nM"},
      {"measurement": "IC90", "setting": "T. cruzi isolates; strain Montalvania, DTU TcI", "value": 2, "unit": "nM"},
      {"measurement": "IC50", "setting": "T. cruzi isolates; strain Tul8, DTU TcII", "value": 1, "unit": "nM"},
      {"measurement": "IC90", "setting": "T. cruzi isolates; strain Tul8, DTU TcII", "value": 2, "unit": "nM"}
    ]},
    {"smiles": "Cc1c(C(=O)N[C@H](C(=O)OCC2CCOCC2)C(C)C)ccc2c1B(O)OC2", "note": "[AN15368]", "values": [
      {"measurement": "T. cruzi DNA by PCR in post-necropsy tissues", "setting": "T. cruzi; 9 treated macaques, 84-99 sample sites/animal", "value": "negative"},
      {"measurement": "overall safety / toxicity", "setting": "T. cruzi; 60 day course of treatment in NHPs", "value": "no overt safety or reproductive health concerns; also recorded: no overt toxicity"},
      {"measurement": "adverse events", "setting": "T. cruzi; in vivo", "value": "No adverse events"},
      {"measurement": "mean ALT and ALP, levels of lymphocytes and monocytes in blood", "setting": "T. cruzi; in vivo", "value": "mildly elevated"},
      {"measurement": "cure of chronically infected rhesus macaques", "setting": "T. cruzi; in words (FIGS. 4A-4K)", "value": "uniformly cures chronically infected rhesus macaques"},
      {"measurement": "culture of parasites from blood (hemoculture)", "setting": "T. cruzi; [2]", "value": "remained negative"},
      {"measurement": "parasite DNA in blood (PCR)", "setting": "T. cruzi; [2]", "value": "remained negative"},
      {"measurement": "efficacy / cure", "setting": "T. cruzi; naturally infected NHPs, 30 mg/kg, 60 days", "value": 100, "unit": "%"}
    ]}
  ]
}
